This passage reports TGI results from PubChem BioAssay (NCI).

The structures appear in SMILES notation.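 Five compound concentrations were applied to cells in 96-well plates for 48 hours; endpoints were derived by simple linear interpolation of the resulting dose-response curve. TGI denotes the concentration required for complete inhibition of growth.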 Where a SMILES comes first, the peptide text is derived from it. The star is where a group is joined. Boc = CC(C)(C)OC(=O)*

Common to all, as to assay: inhibition of tumour cell growth, NCI panel, 48 h
In experiment [1] the test system is DU-145 prostate.
Experiment [2] has as its system EKVX NSCLC.
Experiment [3] deals with HCC-2998 colon.
In experiment [4] the test system is HCT-15 colon.
In experiment [5] the test system is K-562 leukemia.
Experiment [6] concerns LOX IMVI melanoma.
Experiment [7] concerns M14 melanoma.
Experiment [8] has as its system MOLT-4 leukemia.
Experiment [9] has as its system NCI/ADR-RES ovarian.
Experiment [10] has as its system PC-3 prostate.
The subject of experiment [11] is SF-295 CNS.
For experiment [12], the system named is SK-MEL-5 melanoma.
Experiment [13] relates to SN12C renal.
Experiment [14] relates to SNB-75 CNS.
The test system of experiment [15] is SR leukemia.
For experiment [16], the system named is U251 CNS.
Experiment [17] concerns UACC-62 melanoma.
Experiment [18] relates to HS 578T breast.
Experiment [19] deals with NCI-H522 lung.

As for `COc1ccc(/C=N/NC(=O)c2ccccc2Nc2ccccc2C(=O)N/N=C/c2ccc(OC)cc2)cc1`, the TGI in experiment [1], in [2], in [3], in [4], in experiment [5] and in experiment [6] was above 100 µM in each case. Besides, the TGI in experiment [7], in experiment [8], in experiment [9], in [10], in experiment [11] and in experiment [12] was above 100 µM throughout. The TGI in experiment [13], in experiment [14], in [15], in experiment [16] and in [17] was above 100 µM in each case.
As for `CCCC(=O)OCC1(CO)C/C(=C/CC(C(C)C)C(C)C)C(=O)O1` (stereo unspecified), the TGI was above 100 µM in experiment [1]; above 100 µM in experiment [2]; above 100 µM in [3]; above 100 µM in [4]; above 100 µM in [18]; 35.8 µM in experiment [6]. Besides, the TGI in [19], in experiment [9], in experiment [10], in experiment [11], in experiment [12] and in [13] was above 100 µM in each case. Besides, the TGI in [14], in [16] and in experiment [17] was above 100 µM each time.
Regarding `CSC1=C(C#N)C(=O)N(c2ccc(Cl)cc2)C(=O)C1C#N` (stereo unspecified), the TGI in [1], in [2], in experiment [3], in experiment [4], in experiment [18] and in [5] was above 100 µM each time. Also, the TGI in experiment [6], in experiment [7], in experiment [8], in experiment [19], in experiment [10] and in [11] was above 100 µM in each case. The TGI in [12], in [13], in experiment [15], in experiment [16] and in [17] was above 100 µM throughout.
`CCc1cccc(CC)c1Nc1nc2c(s1)C(=O)c1ccccc1C2=O`: the TGI in experiment [1] is 45.3 µM; in [2], 36.1 µM; in experiment [3] it was 35.6 µM; in experiment [4], 98.1 µM; in [18] it was 71.4 µM; in [5], above 100 µM. For the same compound, the TGI in experiment [6] is 36 µM; in experiment [7], 32.8 µM; in experiment [8] it was above 100 µM; in experiment [19] it was 83.3 µM; in [10], 30.2 µM; in [11] it was 27.8 µM. Also, the TGI in [12] came out at 47.9 µM; in experiment [13], 47.9 µM; in experiment [14] it was 25.4 µM; in [15] it was 89.5 µM; in experiment [16], 29.8 µM; in experiment [17], 32.3 µM.
`CCN(CC)CCSc1n[nH]c(-c2c[nH]c3nc(C)ccc3c2=O)n1`: the TGI in experiment [1], in experiment [2], in [4], in experiment [18], in [5] and in experiment [6] was above 100 µM throughout. Also, the TGI in experiment [7], in experiment [8], in [19], in [9], in experiment [10] and in experiment [11] was above 100 µM in each case. The TGI in experiment [12], in experiment [13], in experiment [16] and in experiment [17] was above 100 µM in each case.
As for `CCCCCCCCCCCCC/C=C1\C[C@H](O)COC1=O`, the TGI in experiment [2] is 32 µM; in experiment [3] it was 37.2 µM; in experiment [4], 32.2 µM; in experiment [5], 33.1 µM; in experiment [7], 28.3 µM; in [19] it was 33.5 µM. In addition, the TGI in experiment [11] came out at 33 µM; in [12], 26.6 µM; in experiment [13], 28.8 µM; in [14] it was 30.7 µM; in experiment [15], 51.2 µM; in experiment [16], 32 µM. Also, in [17], the TGI came out at 26.8 µM.
Turning to `O=C1CCc2nc3ncccc3cc2C1`, the TGI was above 100 µM in experiment [2]; above 100 µM in [3]; above 100 µM in [4]; 97.7 µM in experiment [5]; above 100 µM in experiment [7]; above 100 µM in experiment [8]. The TGI is 55.4 µM in [19]; above 100 µM in experiment [9]; above 100 µM in experiment [10]; above 100 µM in experiment [11]; above 100 µM in experiment [12]; above 100 µM in experiment [13]. Further, the TGI in experiment [14] is above 100 µM.
`CCOC(=O)CCSS(=O)(=O)C(F)(F)F`: the TGI in experiment [1], in [2], in [3], in experiment [4], in experiment [6] and in [7] was above 100 µM in each case. Further, the TGI in experiment [9], in experiment [10], in experiment [11], in [12], in experiment [13] and in experiment [14] was above 100 µM each time. Further, the TGI in experiment [16] and in experiment [17] was above 100 µM throughout.
`COC(=O)C(Cc1c[nH]c2ccccc12)NC(=O)C(Cc1c[nH]c2ccccc12)NC(=O)C(Cc1c[nH]c2ccccc12)NC(=O)OC(C)(C)C` (stereo not drawn) (Boc-Trp-Trp-Trp-OMe; configuration not given here): the TGI is above 100 µM in experiment [2]; 32.9 µM in experiment [3]; 41.4 µM in experiment [4]; 48.4 µM in experiment [18]; above 100 µM in experiment [5]; above 100 µM in experiment [7]. Also, the TGI was 39.9 µM in experiment [8]; 30 µM in experiment [10]; above 100 µM in experiment [12]; 39.4 µM in [13]; 42 µM in [14]; 32.4 µM in experiment [16]. In [17], this compound returned a TGI of 38.3 µM.
